{"source": "patent US10307466B2", "about": "“Composition comprising sophorolipid, physiologically active substance and oil or fat, and method for producing the same” (SARAYA CO., LTD., priority 2014, dated 2019)", "experiment": "Binding to phosphatidylcholine-coated silica beads (TRANSIL Intestinal Absorption Kit)", "conditions": "compared with the physiologically active substance alone taken as 1; for Relative amount of physiologically active substance bound to the beads, Example (sophorolipid): substance emulsified with sophorolipid; for Relative amount of physiologically active substance bound to the beads, Comparative Example (sucrose fatty acid ester): substance emulsified with sucrose fatty acid ester", "procedure": "In the evaluation herein, the binding of substances to silica beads coated with a phospholipid (phosphatidylcholine) was compared. A higher binding indicates a higher cell membrane transport and a higher intestinal absorption.\nAn aqueous phase was prepared and the pH was adjusted with a pH adjuster to a pH value of 6. The aqueous phase and an oil phase were heated to 50 to 60° C. The aqueous phase was added to the oil phase. The mixture was stirred with a homogenizer (HG-200, As One Corporation) at a high speed of 10,000 rpm for 10 minutes to give an emulsion.\nThe affinity with phosphatidylcholine-coated silica beads (TRANSIL Intestinal Absorption Kit, SOVICELL GMBH) was assessed. A volume of 200 μl of PBS (phosphate buffered saline) containing the beads was added to each tube, and 20 μl of each of the compositions was added. The mixture was agitated with a test tube mixer for 12 minutes. The beads were allowed to settle, and the supernatant was collected and diluted to 10-fold. The fluorescence intensity of the supernatant was measured with a spectrophotometer (Hitachi F-2700, excitation wavelength: 494 nm, fluorescence wavelength: 521 nm).\nA volume of 200 μl of PBS containing the beads was added to each tube, and 20 μl of each of the compositions was added. The mixture was agitated with a test tube mixer for 12 minutes. The beads were allowed to settle, and the supernatant was removed. The beads were washed with PBS, and 200 μl of methanol was added to elute oil red from the beads. The absorbance of the oil red solution in methanol was measured at 510 nm with an ultraviolet spectrophotometer (Shimadzu UV-1200). The relative amount of the pigment of Example 14 or Comparative Example 4 bound to the beads was calculated, with the obtained value of an oil red solution (Comparative Example 5) taken as 1.\nA volume of 200 μl of PBS containing the beads was added to each tube, and 20 μl of each of the compositions was added. The mixture was agitated with a test tube mixer for 12 minutes. The beads were allowed to settle, and the supernatant was removed. The beads were washed with PBS, and 200 μl of methanol was added to elute tocopherol from the beads. The amount of tocopherol was measured by HPLC (Shimadzu LC-10A series). The relative amount of tocopherol of Example 15 or Comparative Example 6 bound to the beads was calculated, with the obtained value of a tocopherol solution (Comparative Example 7) taken as 1.\nA volume of 200 μl of PBS containing the beads was added to each tube, and 20 μl of each of the compositions was added. The mixture was agitated with a test tube mixer for 12 minutes. The beads were allowed to settle, and the supernatant was removed. The beads were washed with PBS, and 200 μl of hexane was added to elute DHA from the beads. The amount of DHA was measured by gas chromatography (Shimadzu GC-2014 series).\nThe relative amount of DHA of Example 16 or Comparative Example 8 bound to the beads was calculated, with the obtained value of a DHA solution (Comparative Example 9) taken as 1.\nGC was used for the analysis of eicosapentaenoic acid and linoleic acid. […] An atomic absorption spectrophotometer was used for the analysis of zinc gluconate, copper gluconate, and iron citrate.\nThe calculated value was expressed by the symbols A, B and C. The affinities of the physiologically active substances were assessed by comparing the cases where each physiologically active substance was emulsified with a sucrose fatty acid ester or the sophorolipid and where each of the physiologically active substances was used alone.", "data": [{"substance": "Copper gluconate", "values": [{"measurement": "Relative amount of physiologically active substance bound to the beads, Example (sophorolipid)", "result": "B (affinity of not less than 2.0-fold and less than 5.0-fold)"}, {"measurement": "Relative amount of physiologically active substance bound to the beads, Comparative Example (sucrose fatty acid ester)", "result": "C (affinity of less than 2.0-fold)"}]}, {"substance": "Iron citrate", "values": [{"measurement": "Relative amount of physiologically active substance bound to the beads, Example (sophorolipid)", "result": "B (affinity of not less than 2.0-fold and less than 5.0-fold)"}, {"measurement": "Relative amount of physiologically active substance bound to the beads, Comparative Example (sucrose fatty acid ester)", "result": "C (affinity of less than 2.0-fold)"}]}, {"substance": "Zinc gluconate", "values": [{"measurement": "Relative amount of physiologically active substance bound to the beads, Example (sophorolipid)", "result": "B (affinity of not less than 2.0-fold and less than 5.0-fold)"}, {"measurement": "Relative amount of physiologically active substance bound to the beads, Comparative Example (sucrose fatty acid ester)", "result": "C (affinity of less than 2.0-fold)"}]}]}
